# Experimental data as given in PubChem BioAssay AID212 (DTP/NCI, 2004).
# Values joined by “and” are separate entries in the source; they are usually repeats but may differ in a detail not shown here. Equal entries are not always repeated. Results filed as inconclusive are left out.
# System: BDF1 mice, colon carcinoma 38 sc, T/C %
# Assay: NCI In Vivo Anticancer Drug Screen. Data for tumor model Colon Carcinoma 38 (subcutaneous) in B6D2F1 (BDF1) mice
# Conditions: endpoint: median tumor weight (est.), higher = larger tumour
# In short: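 Transplantable tumor in mice; compound-treated vs vehicle-dosed controls. Measured survival or tumor size; value = T ÷ C.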
# [1] = dose: 50.0 mg/kg/injection, schedule: Q07DX002 (ip), vehicle: saline with Tween-80
# [2] = dose: 200.0 mg/kg/injection, schedule: Q07DX002 (ip), vehicle: saline with Tween-80
# [3] = dose: 400.0 mg/kg/injection, schedule: Q07DX002 (ip), vehicle: saline with Tween-80
# [4] = dose: 100.0 mg/kg/injection, schedule: Q07DX002 (ip), vehicle: saline with Tween-80
smiles,measurement,setting,value
O=Cc1ccc(C=O)c(Cl)c1,T/C,"dose: 50.0 mg/kg/injection, schedule: Q07DX002 (ip), vehicle: Klucel (hydroxypropylcellulose) (HPC)",107 % of control
same,T/C,"dose: 100.0 mg/kg/injection, schedule: Q07DX002 (ip), vehicle: Klucel (hydroxypropylcellulose) (HPC)",79 % of control
same,T/C,"dose: 200.0 mg/kg/injection, schedule: Q07DX002 (ip), vehicle: Klucel (hydroxypropylcellulose) (HPC)",95 % of control
same,T/C,"dose: 400.0 mg/kg/injection, schedule: Q07DX002 (ip), vehicle: Klucel (hydroxypropylcellulose) (HPC)",75 % of control
CC(C)CCCCCCCCCCCCC(=O)NCC(=O)NC1C(C)OC(Nc2ncnc3nc[nH]c23)C(O)C1O (centres undefined),T/C,"dose: 0.5 mg/kg/injection, schedule: Q07DX002 (ip), vehicle: distilled water + Tween-80",105 % of control
COc1ccc(-c2csc(=[N+]3CCCCC3)s2)cc1,T/C,"dose: 3.13 mg/kg/injection, schedule: Q07DX002 (ip), vehicle: water",107 % of control
same,T/C,"dose: 6.25 mg/kg/injection, schedule: Q07DX002 (ip), vehicle: water",105 % of control
same,T/C,"dose: 12.5 mg/kg/injection, schedule: Q07DX002 (ip), vehicle: water",116 % of control
same,T/C,"dose: 25.0 mg/kg/injection, schedule: Q07DX002 (ip), vehicle: water",123 % of control
same,T/C,"dose: 50.0 mg/kg/injection, schedule: Q07DX002 (ip), vehicle: water",121 % of control
Cc1oc2c(C)c3oc(=O)cc(C)c3cc2c1CCl,T/C,"dose: 12.5 mg/kg/injection, schedule: Q07DX002 (ip), vehicle: saline with Tween-80",77 % of control and 89 % of control
same,T/C,[1],74 % of control and 77 % of control
same,T/C,[2],53 % of control
same,T/C,[3],94 % of control
NC1(C(=O)O)CCCC1,T/C,"dose: 12.5 mg/kg/injection, schedule: Q07DX003 (ip), vehicle: saline",72 % of control
same,T/C,"dose: 25.0 mg/kg/injection, schedule: Q07DX003 (ip), vehicle: saline",78 % of control
same,T/C,"dose: 50.0 mg/kg/injection, schedule: Q07DX003 (ip), vehicle: saline",92 % of control
same,T/C,"dose: 100.0 mg/kg/injection, schedule: Q07DX003 (ip), vehicle: saline",66 % of control
same,T/C,"dose: 200.0 mg/kg/injection, schedule: Q07DX003 (ip), vehicle: saline",16 % of control
NS(=O)(=O)c1cc2c(cc1Cl)NC=NS2(=O)=O,T/C,"dose: 75.0 mg/kg/injection, schedule: Q07DX002 (ip), vehicle: Klucel (hydroxypropylcellulose) (HPC)",120 % of control
same,T/C,"dose: 150.0 mg/kg/injection, schedule: Q07DX002 (ip), vehicle: Klucel (hydroxypropylcellulose) (HPC)",113 % of control
same,T/C,"dose: 300.0 mg/kg/injection, schedule: Q07DX002 (ip), vehicle: Klucel (hydroxypropylcellulose) (HPC)",90 % of control
same,T/C,"dose: 1200.0 mg/kg/injection, schedule: Q07DX002 (ip), vehicle: Klucel (hydroxypropylcellulose) (HPC)",60 % of control
C[Si](C)(CCl)N[Si](C)(C)CCl,T/C,[1],99 % of control
same,T/C,[4],100 % of control
same,T/C,[3],150 % of control
CC(C)CC(NC(=O)C(O)C(N)Cc1ccccc1)C(=O)O (centres undefined),T/C,"dose: 10.0 micrograms/mouse/injection, schedule: Q10HX006 (ip), vehicle: saline",85 % of control
same,T/C,"dose: 10.0 micrograms/mouse/injection, schedule: Q10HX010 (oral), vehicle: saline",74 % of control
same,T/C,"dose: 100.0 micrograms/mouse/injection, schedule: Q10HX006 (ip), vehicle: saline",50 % of control
same,T/C,"dose: 100.0 micrograms/mouse/injection, schedule: Q10HX010 (oral), vehicle: saline",62 % of control
CCCCOC(=O)/C=C(\Br)C(=O)OCCCC,T/C,"dose: 25.0 mg/kg/injection, schedule: Q07DX002 (ip), vehicle: saline with Tween-80",76 % of control and 98 % of control
same,T/C,[1],71 % of control and 85 % of control
same,T/C,[4],84 % of control and 91 % of control
same,T/C,[2],81 % of control and 85 % of control
same,T/C,[3],69 % of control
Cc1cc(NCCN(C(C)C)C(C)C)nc(/N=C(\N)Nc2ccc(Cl)c(C(F)(F)F)c2)n1,T/C,"dose: 2.5 mg/kg/injection, schedule: Q07DX002 (ip), vehicle: Klucel (hydroxypropylcellulose) (HPC)",89 % of control
same,T/C,"dose: 10.0 mg/kg/injection, schedule: Q07DX002 (ip), vehicle: Klucel (hydroxypropylcellulose) (HPC)",82 % of control
same,T/C,"dose: 20.0 mg/kg/injection, schedule: Q07DX002 (ip), vehicle: Klucel (hydroxypropylcellulose) (HPC)",95 % of control
same,T/C,"dose: 40.0 mg/kg/injection, schedule: Q07DX002 (ip), vehicle: Klucel (hydroxypropylcellulose) (HPC)",67 % of control
